We go through 1 molecule from patent publication US5929236A, “2-substituted morpholine and thiomorpholine derivatives as GABA-B antagonists” (Schering Corporation, priority 1995, dated 1999).

SMILES strings stand for the structures.

The target in experiment [1] is prejunctional GABAB receptors (Cavia porcellus, UniProt A0A286X9P6). Briefly: In Vitro Assay (guinea pig trachea, reversal of baclofen inhibition of EFS-induced contractions). In kind it is cell-based, guinea pig (male Hartley). As to conditions: 30 μmol/L baclofen. As to the method:
Male Hartley guinea pigs (450-650 g) are sacrificed by stunning and the trachea removed proximal to the carina and cut into 5 mm segments. The segments are attached to isometric force displacement transducers (Model FT03: Grass Instruments) and suspended in 15 mL organ baths filled with low Ca^2+ (0.6 mmol/L) Tyrode's buffer solution (pH 7.4) supplemented with 5.6 mmol/L glucose, 30 μmol/L choline and 2 μmol/L indomethacin. The solution is bubbled with a mixture of 95% O2 +5% CO2 and maintained at 37° C. The tracheal segments are allowed to equilibrate for 90 minutes under a resting tension of 0.5 g.
Platinum electrodes are placed on either side of the trachea and electrical field stimulation (EFS) (20 V, 8 Hz, 0.5 ms pulse for 5 s) was generated each minute from an electrical stimulator (Model S-88: Grass Instruments) and delivered to the electrodes through a stimulus distributor (Buxco Electronics). The stimulation parameters are chosen as appropriate for producing cholinergic contractions of the trachea that are sensitive to the inhibitory effects of compounds acting at prejunctional GABAB receptors. Contractile responses were recorded on a polygraph (Harvard Apparatus). The compound to be tested is added to the bath 10 min. before addition of 30 μmol/L baclofen. The effect of baclofen treatment in the absence or in the presence of the compound to be tested is expressed as a percent inhibition of EFS-induced contractions.

The test system of experiment [2] is Respiratory Depressant Effect of Baclofen. The experiment in a line: Inhibition of Respiratory Depressant Effect of Baclofen. In kind it is in vivo, guinea pig. As to conditions: for % Inhibition: mean ± SEM; for ED50: Cavia porcellus. As to the method:
Animal Model for Respiratory Depression:
Place unanesthetized guinea pigs in a head-out plethysmograph and expose to a CO2 enriched gas mixture (10% CO2, 21% O2, 69% N2) for 10 min., (see Danko, et al., J. Pharm. Methods, 19, 165-173 (1988)). Plethysmograph pressure is detected with a transducer connected to a chart recorder. Minute ventilation is calculated as the product of tidal volume and respiratory frequency. The compound to be tested is administered orally, subcutaneously (sc), intraperitoneally (ip) or via an intracerebroventricular route (icv). Baclofen (3 mg/kg, sc) was given 30 min before exposure to the CO2 enriched gas. […] A 40 or 30 min. preteratment is used for the subcutaneous and intraperitoneal routes, respectively. The vehicle for oral, sc or ip administration is saline. For icv administration, single icv cannulae are placed in the lateral ventricle of anesthetized guinea pigs, (see McLeod, et al., Eur. J. Pharmacol., 209, 141-142 (1988)). The animals are allowed to recover approximately one week prior to use for ventilation experiments. The vehicle for icv administration is artificial cerebrospinal fluid (CSF).

Chain of prejunctional GABAB receptors (A0A286X9P6 30-844): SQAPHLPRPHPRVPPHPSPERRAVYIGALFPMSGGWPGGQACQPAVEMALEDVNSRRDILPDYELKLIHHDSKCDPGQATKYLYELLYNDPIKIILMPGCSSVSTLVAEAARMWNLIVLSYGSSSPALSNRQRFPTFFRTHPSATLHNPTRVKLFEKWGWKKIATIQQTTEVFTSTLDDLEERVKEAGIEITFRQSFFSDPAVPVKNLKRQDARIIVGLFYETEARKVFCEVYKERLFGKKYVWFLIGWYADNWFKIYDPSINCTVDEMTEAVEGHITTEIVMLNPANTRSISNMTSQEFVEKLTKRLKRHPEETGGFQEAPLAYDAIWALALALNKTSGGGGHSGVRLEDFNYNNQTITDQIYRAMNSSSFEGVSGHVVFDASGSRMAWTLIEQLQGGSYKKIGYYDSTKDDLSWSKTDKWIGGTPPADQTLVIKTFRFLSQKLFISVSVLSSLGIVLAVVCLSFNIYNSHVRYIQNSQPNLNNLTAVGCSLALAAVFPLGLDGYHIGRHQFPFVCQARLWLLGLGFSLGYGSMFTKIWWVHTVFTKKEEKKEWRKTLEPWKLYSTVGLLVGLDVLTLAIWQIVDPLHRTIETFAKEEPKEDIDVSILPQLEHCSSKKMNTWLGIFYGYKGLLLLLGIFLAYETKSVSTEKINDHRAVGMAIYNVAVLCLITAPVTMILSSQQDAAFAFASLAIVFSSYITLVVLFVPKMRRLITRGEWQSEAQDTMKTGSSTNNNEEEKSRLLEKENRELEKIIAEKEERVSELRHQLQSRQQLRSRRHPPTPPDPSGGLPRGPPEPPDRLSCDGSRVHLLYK
Chain of prejunctional GABAB receptors (H0V741 1-820 partner): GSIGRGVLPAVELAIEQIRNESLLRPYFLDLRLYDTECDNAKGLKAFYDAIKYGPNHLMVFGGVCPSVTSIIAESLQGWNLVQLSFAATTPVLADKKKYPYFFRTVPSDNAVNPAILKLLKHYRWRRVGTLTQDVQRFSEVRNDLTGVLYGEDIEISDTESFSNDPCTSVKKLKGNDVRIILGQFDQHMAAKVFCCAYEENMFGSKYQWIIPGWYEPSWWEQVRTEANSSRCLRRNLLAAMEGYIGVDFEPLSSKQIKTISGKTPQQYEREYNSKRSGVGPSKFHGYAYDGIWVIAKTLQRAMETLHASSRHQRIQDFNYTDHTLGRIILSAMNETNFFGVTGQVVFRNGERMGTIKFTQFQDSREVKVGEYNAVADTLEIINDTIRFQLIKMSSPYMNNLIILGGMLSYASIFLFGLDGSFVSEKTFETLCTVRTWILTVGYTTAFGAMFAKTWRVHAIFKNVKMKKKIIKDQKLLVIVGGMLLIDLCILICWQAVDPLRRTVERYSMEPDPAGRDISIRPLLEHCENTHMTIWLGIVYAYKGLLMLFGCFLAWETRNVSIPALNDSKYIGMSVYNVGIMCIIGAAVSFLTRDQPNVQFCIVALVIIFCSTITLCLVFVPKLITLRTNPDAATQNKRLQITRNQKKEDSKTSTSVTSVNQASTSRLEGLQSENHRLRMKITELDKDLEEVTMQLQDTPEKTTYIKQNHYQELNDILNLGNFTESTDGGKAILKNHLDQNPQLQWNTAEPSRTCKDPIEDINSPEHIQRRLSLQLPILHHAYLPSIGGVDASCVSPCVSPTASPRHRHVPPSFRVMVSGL

Regarding `CC1(C)COC(CC(=O)O)CN1` (single isomer, unassigned) [Example 6A], in experiment [1] (30 μM), the inhibition (commonly how much of the control response was suppressed) at 30 µM was found to be 90%. For the same molecule, the concentration for an effect of 30% (IC30) (as a rule, the concentration needed for an effect of 30%) in experiment [1] (guinea pig trachea) stood at 1100 nM. In addition, the “In Vitro % inhibition” value in experiment [1] (100 μM) came to 94%. Further, the % Inhibition (usually the drop in the measured response relative to a control, in per cent) in experiment [2] (0.3 mg/kg ip) is reported as 39 ± 10%; in experiment [2] (0.3 mg/kg sc), 27 ± 6%; in experiment [2] (1.0 mg/kg ip), 32 ± 7%; in experiment [2] (1.0 mg/kg oral, 60 min prior to baclofen) it was 36 ± 13%; in experiment [2] (1.0 mg/kg sc), 66 ± 7%; in experiment [2] (3.0 mg/kg ip), 59 ± 7%. Moreover, the “% Inhibition” value in experiment [2] (3.0 mg/kg oral, 60 min prior to baclofen) is 51 ± 13%; in experiment [2] (3.0 mg/kg sc), 97 ± 25%; in experiment [2] (10 mg/kg ip), 100 ± 9%; in experiment [2] (10 mg/kg oral, 60 min prior to baclofen), 68 ± 13%; in experiment [2] (10 mg/kg sc), 99 ± 11%; in experiment [2] (30 mg/kg oral, 60 min prior to baclofen) it was 78 ± 29%. Besides, the 50% effective dose (ED50) (usually the dose that gives a 50% effect, or the effect in half of the subjects) was 1.9 mg/kg in experiment [2] (ip); 0.63 mg/kg in experiment [2] (sc); 3 mg/kg in experiment [2] (oral, 60 min prior to baclofen).
